Measurements as given in patent publication US20040086942A1, “Ige receptor antagonists” (priority 2003, published 2004).
Where a SMILES comes first, the peptide text is derived from it. Bridges are numbered along the chain shown (N, C = ends). [ ]: non-standard residue; d: D form. 2Nal = N[C@@H](Cc1ccc2ccccc2c1)C(=O)O; Pip = O=C(O)[C@@H]1CCCCN1; NMeA = CN[C@@H](C)C(=O)O

Experiment: 2D NMR structural score versus reference peptide
Assay type: physicochemical
Design: key to Struct. Score: +++ indicates the peptide is structured similarly to IGE063 (SEQ ID NO:49); + indicates the peptide is structured similarly to IGE063 (SEQ ID NO:49), but is less stable; −/+ indicates the peptide has some elements of stable structure, but the conformation differs from the reference structure (e.g., a different turn type is evident); − indicates the peptide is predominantly unstructured in aqueous solution; key to Structure Score: +++, peptide structurally similar to reference; +, structurally similar to reference but significantly less stable; +/−, peptide has some elements of stable structure, but the conformation differs from the reference structure; −, peptide is predominantly unstructured; *peptide IGE037 (SEQ ID NO:128) was initially unstructured (monomeric form), but became structured after spontaneous dimer formation
Conditions: for Struct. Score: reference IGE063; for Structure Score: reference IGE134
Experimental: Peptides were evaluated by 2D NMR spectroscopy to assess the effect of substitutions on the three-dimensional structure of the peptide analog. All peptides with a structural score indicated in Table 5 were analyzed by 2D NMR spectroscopy; backbone ^1H resonances were assigned and ^3JHN-Hα coupling constants were measured and compared to the reference peptide (IGE063, SEQ ID NO:49; see Example 5). Peptides are defined to be of similar structure to the reference peptide provided chemical shifts, coupling constants, and NOEs are consistent with that structure.
A structural score was assigned to peptides analyzed by 2D NMR spectroscopy. For each of these peptides, backbone ^1H resonances have been assigned, and the ^3JHN-Ha coupling constants have been measured and compared to the reference peptide (i.e., IGE134 (SEQ ID NOS:155, 171)). Peptides are defined to be of similar structure to the reference peptide provided. chemical shifts, coupling constants, and NOEs are consistent with that structure.

Compound	Struct. Score	Structure Score
CSCC[C@H](NC(=O)[C@@H]1CSSC[C@H](NC(=O)[C@H](CCCNC(=N)N)NC(=O)[C@@H]2CCCN2C(=O)[C@H](CC(C)C)NC(=O)[C@H](CC(N)=O)NC(C)=O)C(=O)N[C@@H]([C@@H](C)O)C(=O)N[C@@H](CCC(=O)O)C(=O)NCC(=O)N2CCC[C@H]2C(=O)N[C@@H](Cc2c[nH]c3ccccc23)C(=O)N[C@H](C)C(=O)N[C@@H](Cc2c[nH]c3ccccc23)C(=O)N[C@@H](C(C)C)C(=O)N1)C(=O)O [IGE105, Ac-NLPRCTEGPWaWVCM] (Ac-NLPRCTEGPW[dA]WVCM-OH; disulfide 5-14; C-terminus assumed)	+++	
Ac-NLPRCTEG(hyP)WGWVCM [IGE101]	+++	
CSCC[C@H](NC(=O)[C@@H]1CSSC[C@H](NC(=O)[C@H](CCCNC(=N)N)NC(=O)[C@@H]2CCCN2C(=O)[C@H](CC(C)C)NC(=O)[C@H](CC(N)=O)NC(C)=O)C(=O)N[C@@H]([C@@H](C)O)C(=O)N[C@@H](CCC(=O)O)C(=O)NCC(=O)N2CCC[C@H]2C(=O)N[C@@H](CCCCN)C(=O)NCC(=O)N[C@@H](Cc2c[nH]c3ccccc23)C(=O)N[C@@H](C(C)C)C(=O)N1)C(=O)N[C@@H](C)C(=O)N[C@@H](CC(=O)O)C(=O)N[C@@H](CC(=O)O)C(N)=O [IGE032, Ac-NLPRCTEGPKGWVCMADD-nh2] (Ac-NLPRCTEGPKGWVCMADD-NH2; disulfide 5-14)	+++	
CC(C)C[C@@H]1NC(=O)[C@H](CCC(=O)O)NC(=O)[C@H](Cc2ccc(O)cc2)NC(=O)[C@@H]2CSSC[C@H](NC(=O)[C@H](CC(C)C)NC(=O)[C@H](CCC(=O)O)NC(=O)[C@H](Cc3ccc(O)cc3)NC(=O)[C@H](CC(=O)O)NC1=O)C(=O)N1CCC[C@H]1C(=O)N[C@@H](CC(=O)O)C(=O)N[C@@H](C(C)C)C(=O)N[C@H](C(=O)N[C@@H](Cc1ccc(O)cc1)C(=O)N[C@H](C(=O)NCC(=O)N[C@@H](CCCNC(=N)N)C(=O)O)C(C)C)CSSC[C@H](NC(=O)[C@H](CCC(N)=O)NC(=O)[C@@H](N)C(C)C)C(=O)N1CCC[C@H]1C(=O)N[C@@H](Cc1c[nH]cn1)C(=O)N[C@@H](Cc1ccccc1)C(=O)N2 [IGE156] (H-VQCPHFCYELDYELCPDVCYVGR-OH; disulfide 3-19, 7-15 (inferred))		+++
CSCC[C@H](NC(=O)[C@@H]1CSSC[C@H](NC(=O)[C@H](CCCNC(=N)N)NC(=O)[C@@H]2CCCN2C(=O)[C@H](CC(C)C)NC(=O)[C@H](CC(N)=O)NC(C)=O)C(=O)N[C@@H]([C@@H](C)O)C(=O)N[C@@H](CCC(=O)O)C(=O)NCC(=O)N2CCCC[C@H]2C(=O)N[C@@H](Cc2c[nH]c3ccccc23)C(=O)NCC(=O)N[C@@H](Cc2c[nH]c3ccccc23)C(=O)N[C@@H](C(C)C)C(=O)N1)C(=O)O [IGE095, Ac-NLPRCTEG(Pip)WGWVCM] (Ac-NLPRCTEG[Pip]WGWVCM-OH; disulfide 5-14; C-terminus assumed)	+++	
CC(C)C[C@@H]1NC(=O)[C@H](C)NC(=O)[C@H](Cc2c[nH]cn2)NC(=O)CNC(=O)CNC(=O)[C@H](C(C)C)NC(=O)[C@H](Cc2ccc(O)cc2)NC(=O)[C@@H]2CSSC[C@H](NC1=O)C(=O)N1CCC[C@H]1C(=O)N[C@@H](CC(=O)O)C(=O)N[C@@H](C(C)C)C(=O)N[C@H](C(=O)N[C@@H](Cc1ccc(O)cc1)C(=O)N[C@H](C(=O)NCC(=O)N[C@@H](CCCNC(=N)N)C(=O)O)C(C)C)CSSC[C@H](NC(=O)[C@H](CCC(N)=O)NC(=O)[C@@H](N)C(C)C)C(=O)N1CCC[C@H]1C(=O)N[C@@H](Cc1c[nH]cn1)C(=O)N[C@@H](Cc1ccccc1)C(=O)N2 [IGE132] (H-VQCPHFCYVGGHALCPDVCYVGR-OH; disulfide 3-19, 7-15)		+++
CSCC[C@H](NC(=O)[C@@H]1CSSC[C@H](NC(=O)[C@H](CCCNC(=N)N)NC(=O)[C@@H]2CCCN2C(=O)[C@H](CC(C)C)NC(=O)[C@@H](N)CC(N)=O)C(=O)N[C@@H]([C@@H](C)O)C(=O)N[C@@H](CCC(=O)O)C(=O)NCC(=O)N2CCC[C@@H]2C(=O)N[C@@H](Cc2c[nH]c3ccccc23)C(=O)NCC(=O)N[C@@H](Cc2c[nH]c3ccccc23)C(=O)N[C@@H](C(C)C)C(=O)N1)C(=O)O [IGE071, NLPRCTEGpWGWVCM] (H-NLPRCTEG[dP]WGWVCM-OH; disulfide 5-14; N-terminus and C-terminus assumed)	−/+	

Now from value to compound, other results behind:

Struct. Score	Compound	Structure Score
+++	CC(C)C[C@H](NC(=O)[C@@H](N)CC(N)=O)C(=O)N1CCC[C@H]1C(=O)N[C@@H](CCCNC(=N)N)C(=O)N[C@H]1CSSC[C@@H](C(N)=O)NC(=O)[C@H](C(C)C)NC(=O)[C@H](Cc2c[nH]c3ccccc23)NC(=O)CNC(=O)[C@H](Cc2c[nH]c3ccccc23)NC(=O)[C@@H]2CCCN2C(=O)CNC(=O)[C@H](CCC(=O)O)NC(=O)[C@H]([C@@H](C)O)NC1=O [IGE091, NLPRCTEGPWGWVC-nh2] (H-NLPRCTEGPWGWVC-NH2; disulfide 5-14)	
+++	CSCC[C@H](NC(=O)[C@@H]1CSSC[C@H](NC(=O)[C@H](CCCNC(=N)N)NC(=O)[C@@H]2CCCN2C(=O)[C@H](CC(C)C)NC(=O)[C@H](CC(N)=O)NC(C)=O)C(=O)N[C@@H]([C@@H](C)O)C(=O)N[C@@H](CCC(=O)O)C(=O)NCC(=O)N2CCC[C@H]2C(=O)N[C@@H](Cc2ccc3ccccc3c2)C(=O)NCC(=O)N[C@@H](Cc2c[nH]c3ccccc23)C(=O)N[C@@H](C(C)C)C(=O)N1)C(=O)O [IGE103, Ac-NLPRCTEGP(npA)GWVCM] (Ac-NLPRCTEGP[2Nal]GWVCM-OH; disulfide 5-14; C-terminus assumed)	
+++	CSCC[C@H](NC(=O)[C@@H]1CSSC[C@H](NC(=O)[C@H](CCCNC(=N)N)NC(=O)[C@@H]2CCCN2C(=O)[C@H](CC(C)C)NC(=O)[C@H](CC(N)=O)NC(C)=O)C(=O)N[C@@H]([C@@H](C)O)C(=O)N[C@@H](CCC(=O)O)C(=O)NCC(=O)N(C)[C@@H](C)C(=O)N[C@@H](Cc2c[nH]c3ccccc23)C(=O)NCC(=O)N[C@@H](Cc2c[nH]c3ccccc23)C(=O)N[C@@H](C(C)C)C(=O)N1)C(=O)O [IGE096, Ac-NLPRCTEG(N-Me-A)WGWVCM] (Ac-NLPRCTEG[NMeA]WGWVCM-OH; disulfide 5-14; C-terminus assumed)	
+	Ac-NLPRCTEGPWGWVCM [IGE108]	
+++	CSCC[C@H](NC(=O)[C@@H]1CSSC[C@H](NC(=O)[C@H](CCCNC(=N)N)NC(=O)[C@@H]2CCCN2C(=O)[C@H](CC(C)C)NC(=O)[C@H](CC(N)=O)NC(C)=O)C(=O)N[C@@H]([C@@H](C)O)C(=O)N[C@@H](CCC(=O)O)C(=O)NCC(=O)N2CCC[C@H]2C(=O)N[C@@H](C(C)C)C(=O)NCC(=O)N[C@@H](Cc2c[nH]c3ccccc23)C(=O)N[C@@H](C(C)C)C(=O)N1)C(=O)O [IGE106, Ac-NLPRCTEGPVGWVCM] (Ac-NLPRCTEGPVGWVCM-OH; disulfide 5-14; C-terminus assumed)	
+++	CSCC[C@H](NC(=O)[C@@H]1CSSC[C@H](NC(=O)[C@H](CCCNC(=N)N)NC(=O)[C@@H]2CCCN2C(=O)[C@H](CC(C)C)NC(=O)[C@H](CC(N)=O)NC(C)=O)C(=O)N[C@@H]([C@@H](C)O)C(=O)N[C@@H](CCC(=O)O)C(=O)NCC(=O)N2CCC[C@H]2C(=O)N[C@@H](Cc2c[nH]c3ccccc23)C(=O)NCC(=O)N[C@@H](CC(C)C)C(=O)N[C@@H](C(C)C)C(=O)N1)C(=O)O [IGE109, Ac-NLPRCTEGPWGLVCM] (Ac-NLPRCTEGPWGLVCM-OH; disulfide 5-14; C-terminus assumed)	
